This note sets out measurements from ChEMBL document CHEMBL1201862, “PubChem BioAssay data set” (2004).

Test systems include HOP-62; CCRF-CEM; U-251; SK-MEL-5; RPMI-8226; SK-MEL-28; MOLT-4; IGROV-1; SF-268; HT-29; A549; NCI-H522; UACC-257; HL-60; COLO 205; LOX IMVI; KM12; M14; SK-OV-3.
What all share (test): NCI anticancer screen, dose series, 48 h

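Tested at 5 concentrations; 48 h exposure; 96-well plates; endpoints linearly interpolated, else capped at highest concentration. GI50 marks 50% less growth.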 Calls of active or inactive are those of the source. Cut-off read from the data, not from the text of the source: active = GI50 up to about 1.1 µM and inactive = higher.

Take `C=CC1(c2ccccc2Cl)N/C(=C/OCC)CO1` (stereo not drawn): the GI50 with HOP-62 is > 100 µM (inactive); with CCRF-CEM, > 100 µM (inactive); with U-251, > 100 µM (inactive); in the assay with SK-MEL-5, > 100 µM (inactive); in the assay on RPMI-8226, 24.7 µM (inactive); in the assay on SK-MEL-28, > 100 µM (inactive). For the same compound, the GI50 in the assay on MOLT-4 was > 100 µM (inactive); in the assay on IGROV-1, > 100 µM (inactive); in the assay on SF-268, > 100 µM (inactive); in the assay with HT-29, > 100 µM (inactive); with A549, 38.2 µM (inactive); with NCI-H522, > 100 µM (inactive). Moreover, the GI50 is > 100 µM (inactive) in the assay on UACC-257; 47.9 µM (inactive) with HL-60; 88.3 µM (inactive) in the assay on COLO 205; 23.5 µM (inactive) with LOX IMVI; > 100 µM (inactive) with KM12; > 100 µM (inactive) in the assay with M14. Also, the GI50 with SK-OV-3 was > 100 µM (inactive).
For `O=C(OCc1ccccc1)OOC(=O)OCc1ccccc1`, the GI50 in the assay with HOP-62, in the assay with CCRF-CEM, in the assay with U-251, with SK-MEL-5, in the assay on RPMI-8226 and in the assay with SK-MEL-28 was > 100 µM (inactive) in each case. Further, the GI50 in the assay on MOLT-4, with IGROV-1, in the assay with SF-268, with HT-29, in the assay on A549 and in the assay with NCI-H522 was > 100 µM (inactive) in each case. The GI50 in the assay on UACC-257, in the assay with HL-60, in the assay with COLO 205, with KM12, in the assay on M14 and in the assay on SK-OV-3 was > 100 µM (inactive) throughout.
For the compound `COc1ccc(/C(Cl)=C(\C=O)c2ccc(F)cc2)cc1`, the GI50 with HOP-62 is 9.59 µM (inactive); in the assay on CCRF-CEM, 3.14 µM (inactive); in the assay on U-251, 6.58 µM (inactive); with SK-MEL-5, 9.06 µM (inactive); in the assay with RPMI-8226, 4.49 µM (inactive); in the assay with SK-MEL-28 it was 16.7 µM (inactive). Besides, the GI50 in the assay with MOLT-4 was 3.56 µM (inactive); with IGROV-1, 18.9 µM (inactive); with SF-268, 8.36 µM (inactive); with HT-29 it was 7.41 µM (inactive); in the assay with NCI-H522 it was 4.06 µM (inactive); with HL-60, 2.72 µM (inactive). In addition, the GI50 was 16.6 µM (inactive) in the assay with COLO 205, 7.03 µM (inactive) in the assay on LOX IMVI, 12.9 µM (inactive) in the assay with M14 and 40 µM (inactive) in the assay with SK-OV-3.
In the case of `C=C(CS(=O)(=O)c1ccccc1)[P+](c1ccccc1)(c1ccccc1)c1ccccc1`, the GI50 is 28.1 µM (inactive) in the assay with HOP-62; 5.22 µM (inactive) with CCRF-CEM; > 10 µM (inactive) in the assay with U-251; 13.6 µM (inactive) with SK-MEL-5; 3.06 µM (inactive) with RPMI-8226; 11.1 µM (inactive) in the assay on SK-MEL-28. The GI50 is 16.6 µM (inactive) with MOLT-4; 25.7 µM (inactive) with IGROV-1; 2.72 µM (inactive) in the assay on SF-268; 18.2 µM (inactive) in the assay on HT-29; 34.3 µM (inactive) with A549; 18.6 µM (inactive) with NCI-H522. The GI50 with UACC-257 is 8.93 µM (inactive); in the assay on HL-60, 9.16 µM (inactive); in the assay on LOX IMVI, 13.5 µM (inactive); in the assay on KM12, 14.7 µM (inactive); in the assay on M14 it was 17.4 µM (inactive); in the assay with SK-OV-3 it was 27.3 µM (inactive).
For the compound `CCOC(=O)C(=O)NC12CC3CC(CC(C3)C1)C2`, the GI50 in the assay on HOP-62, with CCRF-CEM, in the assay with U-251, in the assay with SK-MEL-5, in the assay with RPMI-8226 and in the assay with SK-MEL-28 was > 100 µM (inactive) throughout. Moreover, the GI50 with IGROV-1, with SF-268, in the assay on HT-29, in the assay on A549, in the assay with NCI-H522 and with UACC-257 was > 100 µM (inactive) each time. Moreover, the GI50 is > 100 µM (inactive) in the assay with HL-60; > 100 µM (inactive) in the assay on COLO 205; 0.208 µM (active) in the assay on LOX IMVI; > 100 µM (inactive) with KM12; > 100 µM (inactive) in the assay with M14; > 100 µM (inactive) in the assay on SK-OV-3.
As for `N/N=C(\C(=O)Nc1c(Cl)cc([N+](=O)[O-])cc1Cl)C(c1cnc2ccc([N+](=O)[O-])cc2n1)[N+](=O)[O-]` (stereo not drawn), the GI50 in the assay with HOP-62 is > 100 µM (inactive); in the assay with CCRF-CEM it was 77.1 µM (inactive); in the assay on U-251, > 100 µM (inactive); in the assay on SK-MEL-5 it was > 100 µM (inactive); with RPMI-8226 it was 42.8 µM (inactive); in the assay with SK-MEL-28, > 100 µM (inactive). The GI50 was 47.6 µM (inactive) in the assay with MOLT-4; > 100 µM (inactive) in the assay on IGROV-1; > 100 µM (inactive) in the assay with SF-268; > 100 µM (inactive) in the assay with HT-29; > 100 µM (inactive) in the assay on A549; 9.98 µM (inactive) in the assay with NCI-H522. Besides, the GI50 is > 100 µM (inactive) with UACC-257; 28.1 µM (inactive) in the assay on HL-60; > 100 µM (inactive) with COLO 205; > 100 µM (inactive) with LOX IMVI; 50.1 µM (inactive) with KM12; > 100 µM (inactive) in the assay on SK-OV-3.
Regarding `COc1c2c(cc3c(CCc4ccccc4)cc(=O)oc13)CCC(C)(C)O2`, the GI50 in the assay with HOP-62, in the assay with CCRF-CEM, in the assay with U-251, in the assay on SK-MEL-5, in the assay with RPMI-8226 and in the assay on SK-MEL-28 was > 100 µM (inactive) each time. Besides, the GI50 in the assay on MOLT-4, in the assay with IGROV-1, in the assay on SF-268, in the assay with HT-29, with UACC-257 and with HL-60 was > 100 µM (inactive) throughout. In addition, the GI50 in the assay with COLO 205, with LOX IMVI, in the assay with KM12, with M14 and with SK-OV-3 was > 100 µM (inactive) in each case.
For `O=S1(=O)CC#CC[C@@H](CO)[C@@H](CO)CC#CC1`, the GI50 in the assay with HOP-62 was > 100 µM (inactive); in the assay with CCRF-CEM, 22.5 µM (inactive); with U-251 it was > 100 µM (inactive); in the assay with SK-MEL-5 it was > 100 µM (inactive); in the assay on SK-MEL-28, 72.3 µM (inactive); in the assay on MOLT-4, 42.5 µM (inactive). For the same compound, the GI50 was 43.1 µM (inactive) in the assay on IGROV-1; > 100 µM (inactive) in the assay on HT-29; > 100 µM (inactive) in the assay on A549; 17.9 µM (inactive) with NCI-H522; 91.6 µM (inactive) in the assay with UACC-257; 53.7 µM (inactive) with HL-60. Moreover, the GI50 in the assay with LOX IMVI was 69.3 µM (inactive); with KM12, > 100 µM (inactive); in the assay on M14, 40.1 µM (inactive); in the assay on SK-OV-3, > 100 µM (inactive).
As for `CSc1ncc2c(n1)-c1ccccc1OC2NC(C)(C)C` (stereo not drawn), the GI50 in the assay with HOP-62 is > 100 µM (inactive); with CCRF-CEM, 91.4 µM (inactive); in the assay on U-251, > 100 µM (inactive); in the assay on RPMI-8226, 57.7 µM (inactive); in the assay on SK-MEL-28, > 100 µM (inactive); in the assay on MOLT-4, 47.2 µM (inactive). Further, the GI50 in the assay with SF-268 is 87.3 µM (inactive); with HT-29, 77.6 µM (inactive); with A549 it was > 100 µM (inactive); in the assay on NCI-H522, 27.8 µM (inactive); with UACC-257, > 100 µM (inactive); with HL-60 it was > 100 µM (inactive). Moreover, the GI50 with COLO 205 was > 100 µM (inactive); in the assay on LOX IMVI, > 100 µM (inactive); with KM12, > 100 µM (inactive); in the assay with M14 it was > 100 µM (inactive); with SK-OV-3, 91.2 µM (inactive).
Take `O=C1C2C3C=C4c5ccccc5N(c5ccccc5)C4(C2C(=O)N1Cc1ccccc1)C1C(=O)N(Cc2ccccc2)C(=O)C31` (stereo not drawn): the GI50 with HOP-62 was > 10 µM (inactive); in the assay on CCRF-CEM, > 100 µM (inactive); with U-251, > 100 µM (inactive); with SK-MEL-28, > 100 µM (inactive); in the assay on MOLT-4, > 100 µM (inactive); with SF-268 it was > 100 µM (inactive). In addition, the GI50 in the assay with HT-29 is > 100 µM (inactive); in the assay on A549 it was > 100 µM (inactive); in the assay with UACC-257, > 100 µM (inactive); in the assay with HL-60 it was > 100 µM (inactive); with COLO 205, > 100 µM (inactive); in the assay with LOX IMVI, 78.9 µM (inactive). Also, the GI50 is > 100 µM (inactive) in the assay with KM12 and > 10 µM (inactive) in the assay on M14.
For the compound `C[Si](C)(C)/C(I)=C/CO`, the GI50 in the assay on CCRF-CEM was 22 µM (inactive); in the assay on U-251 it was 18.3 µM (inactive); in the assay with SK-MEL-5, 19 µM (inactive); in the assay on RPMI-8226, 17.4 µM (inactive); with SK-MEL-28, 27.9 µM (inactive); with MOLT-4 it was 17 µM (inactive). The GI50 with IGROV-1 is 25.1 µM (inactive); with SF-268, 27.1 µM (inactive); in the assay on HT-29, 20.5 µM (inactive); with A549, 24.1 µM (inactive); in the assay on NCI-H522, 16.1 µM (inactive); in the assay with UACC-257, 15.5 µM (inactive). Moreover, the GI50 in the assay with COLO 205 is 16.3 µM (inactive); in the assay on LOX IMVI, 19.3 µM (inactive); in the assay with KM12, 23 µM (inactive); in the assay on M14, 35.2 µM (inactive); in the assay on SK-OV-3, 32.5 µM (inactive).
